Data as given in patent US9567339B2, “Primary carboxamides as BTK inhibitors” (AbbVie Inc., priority 2013, dated 2017).
Where two headings read alike, the source gives them in different places.

Molecular target: BTK, recombinant human catalytic domain (aa 393-659) (Homo sapiens (Human), UniProt Q06187)
Test: In vitro BTK kinase activity measured by time-resolved fluorescence resonance energy transfer (trFRET)
Format: biochemical
Settings: read-out: Btk IC50
[1] = trFRET, 0.001 mM ATP, biotin-TYR1 peptide substrate

BTK, recombinant human catalytic domain (aa 393-659), sequence (Q06187 393-659): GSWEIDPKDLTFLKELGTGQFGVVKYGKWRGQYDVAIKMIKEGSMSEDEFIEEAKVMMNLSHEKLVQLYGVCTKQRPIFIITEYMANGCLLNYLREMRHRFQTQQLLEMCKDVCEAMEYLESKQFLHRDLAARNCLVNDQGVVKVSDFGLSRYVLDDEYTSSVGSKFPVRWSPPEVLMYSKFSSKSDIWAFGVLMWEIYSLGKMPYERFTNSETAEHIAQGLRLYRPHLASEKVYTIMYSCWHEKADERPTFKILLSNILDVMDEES

SMILES	IC50 [1] [nM]	IC50 [nM]
Cc1c(-c2ccc(C(N)=O)c3[nH]c(C4=CCN(S(C)(=O)=O)CC4)cc23)cccc1N1CCc2ccccc2C1=O [A.4.6]	< 100	
C=CC(=O)Nc1ccc(C(N)=O)c2[nH]ccc12 [Example 5, 4-Acrylamido-1H-indole-7-carboxamide]	1000 to 10000	
CCOC(=O)/C=C/C(=O)Nc1cccc(-c2ccc(C(N)=O)c3[nH]c(C4=CCN(S(C)(=O)=O)CC4)cc23)c1C [D.7.20]		< 100
C=CC(=O)Nc1cccc(-c2cnc(C(N)=O)c3[nH]ccc23)c1C [Example 17, 4-(3-Acrylamido-2-methylphenyl)-1H-pyrrolo[2,3-c]pyridine-7-carboxamide]	< 100	
COC(=O)/C=C/C(=O)Nc1cccc(-c2ccc(C(N)=O)c3[nH]ccc23)c1 [D.1, (E)-Methyl 4-((3-(7-carbamoyl-1H-indol-4-yl)phenyl)amino)-4-oxobut-2-enoate]	< 100	
Cc1c(NC(=O)c2nccs2)cccc1-c1ccc(C(N)=O)c2[nH]c(-c3ccccc3CNC(=O)CCN3CCCCC3)cc12 [D.1.5]	1000 to 10000	
CS(=O)(=O)N1CC=C(c2cc3c(-c4ccccc4N)ccc(C(N)=O)c3[nH]2)CC1 [A.4.2, 4-(2-aminophenyl)-2-(1-(methylsulfonyl)-1,2,3,6-tetrahydropyridin-4-yl)-1H-indole-7-carboxamide]	< 100	
C=CC(=O)Nc1cccc(-c2ccc(C(N)=O)c3[nH]c(-c4ccc(C(=O)N5CCN(C)CC5)cc4)cc23)c1C [A.1.39]	< 100	
Cc1c(NC(=O)c2cc3c(s2)CCCC3)cccc1-c1ccc(C(N)=O)c2[nH]c(-c3cccnc3)cc12 [A.7.3]	< 100	
C=CC(=O)N1CCOC[C@@H](c2cnc(C(N)=O)c3[nH]ccc23)C1 [Example 3.1]		100 to 1000
Cc1ccc(-c2cc3c(-c4ccccn4)ccc(C(N)=O)c3[nH]2)cc1 [U.1.3]		100 to 1000
C=C(C)C(=O)Nc1cccc(-c2ccc(C(N)=O)c3[nH]c(C4=CCN(S(C)(=O)=O)CC4)cc23)c1C [D.7.5]		< 100
Cn1cc(-c2cc3c(N4CCC[C@@H](NC(=O)c5ccc(C(C)(C)C(N)=O)cc5)C4)ccc(C(N)=O)c3[nH]2)cn1 [O.1.23*]		100 to 1000
C=CC(=O)Nc1ccccc1-c1ccc(C(N)=O)c2[nH]c(C3=CCN(S(C)(=O)=O)CC3)cc12 [A.4.3]	< 100	
Cc1c(-c2ccc(C(N)=O)c3[nH]c(C4=CCN(S(C)(=O)=O)CC4)cc23)cccc1N(C(=O)c1ccc(C(F)F)cc1)C1COC1 [A.4.12]	< 100	
Cc1c(NC(=O)c2cc3c(s2)CCCC3)cccc1-c1ccc(C(N)=O)c2[nH]c(-c3ccc(F)cc3)cc12 [A.9.7]	1000 to 10000	
Cc1c(NC(=O)CC(C)C)cccc1-c1ccc(C(N)=O)c2[nH]c(C3=CCN(S(C)(=O)=O)CC3)cc12 [D.7.35]		< 100
Cc1c(NC(=O)C2CCOCC2)cccc1-c1ccc(C(N)=O)c2[nH]c(C3=CCN(S(C)(=O)=O)CC3)cc12 [D.7.33]		< 100
C=CC(=O)NCc1cccc(-c2ccc(C(N)=O)c3[nH]c(C4=CCN(S(C)(=O)=O)CC4)cc23)c1 [A.4.1]	< 100	
CC(=O)N1CC=C(c2cc3c(-c4cccc(NC(=O)c5ccc(C(C)(C)C#N)cc5)c4C)ccc(C(N)=O)c3[nH]2)CC1 [A.3.8]	< 100	
C=CC(=O)N1CC(Nc2cnc(C(N)=O)c3[nH]ccc23)C1 [E.9.34]		< 100
C/C=C(/C)C(=O)Nc1cccc(-c2ccc(C(N)=O)c3[nH]c(C4=CCN(S(C)(=O)=O)CC4)cc23)c1C [D.7.1]		< 100
C=CC(=O)N1CC(N(C)c2ccc(C(N)=O)c3[nH]c(C4=CCC(S(C)(=O)=O)CC4)cc23)C1 (stereo not shown) [E.9.6]		< 100
Cc1c(NC(=O)COc2ccccn2)cccc1-c1ccc(C(N)=O)c2[nH]c(C3=CCN(S(C)(=O)=O)CC3)cc12 [D.7.24]		< 100
CS(=O)(=O)N1CC=C(c2cc3c(-c4ccccc4)ccc(C(N)=O)c3[nH]2)CC1 [A.4.7]	< 100	

SMILES	IC50 [1] [nM]	IC50 [nM]
C=CC(=O)Nc1cc(-c2ccc(C(N)=O)c3[nH]ccc23)ccc1Cl [E.1.19]		< 100
NC(=O)c1ccc(N2CCC[C@@H](NC(=O)Nc3nccs3)C2)c2cc[nH]c12 [O.1.7*]		1000 to 10000
Cc1c(NC(=O)c2nccs2)cccc1-c1ccc(C(N)=O)c2[nH]c(-c3ccccc3CNC(=O)COc3ccccc3)cc12 [D.1.6]	1000 to 10000	
C=CC(=O)Nc1cccc(-c2ccc(C(N)=O)c3[nH]c(-c4ccc5c(c4)CCO5)cc23)c1C [A.1.21]	< 100	
Cc1c(NC(=O)/C=C/c2ccccn2)cccc1-c1ccc(C(N)=O)c2[nH]ccc12 [D.8.3]	100 to 1000	
Cc1c(NC(=O)c2cccnc2)cccc1-c1ccc(C(N)=O)c2[nH]c(C3=CCN(S(C)(=O)=O)CC3)cc12 [D.7.39]		< 100
C=CC(=O)Nc1cccc(-c2ccc(C(N)=O)c3[nH]c(-c4cccnc4F)cc23)c1C [A.1.17]	< 100	
NC(=O)c1ccc(-c2ccccc2NC(=O)Cn2sc3ccccc3c2=O)c2cc[nH]c12 [D.2.1]	1000 to 10000	
CC(=O)N1CCC(c2cc3c(-c4cccc(NC(=O)c5ccc(C6CC6)cc5)c4C)ccc(C(N)=O)c3[nH]2)CC1 [D.5.1]	100 to 1000	
C=CC(=O)Nc1cccc(-c2ccc(C(N)=O)c3[nH]c(CCOCC)cc23)c1 [Example 22, 4-(3-Acrylamidophenyl)-2-(2-ethoxyethyl)-1H-indole-7-carboxamide]	< 100	
CC(=O)NCc1ccccc1-c1cc2c(-c3cccc(NC(=O)c4nccs4)c3C)ccc(C(N)=O)c2[nH]1 [E.4.3]		100 to 1000
CC#CC(=O)NCc1ccccc1-c1cc2c(-c3cccc(NC(=O)c4nccs4)c3C)ccc(C(N)=O)c2[nH]1 [D.1.1]	1000 to 10000	
Cc1c(NC(=O)/C=C/c2cnn(C)c2)cccc1-c1ccc(C(N)=O)c2[nH]ccc12 [D.8.2]	100 to 1000	
C=CC(=O)N1CC[C@H](c2ccc(C(N)=O)c3[nH]c(-c4cc5n(n4)CCOC5)cc23)C1 [E.9.26]		< 100
Cc1c(NC(=O)c2ccc(C3CC3)cc2)cccc1-c1ccc(C(N)=O)c2[nH]c(-c3cncnc3)cc12 [A.13.4]	100 to 1000	
C=CC(=O)Nc1cccc(-c2ccc(C(N)=O)c3[nH]c(-c4ccc(N5CCOCC5)nc4)cc23)c1C [A.1.30]	< 100	
C=CS(=O)(=O)Nc1cccc(-c2ccc(C(N)=O)c3[nH]ccc23)c1 [I.1, 4-(3-(Vinylsulfonamido)phenyl)-1H-indole-7-carboxamide]	< 100	
C=CC(=O)Nc1cccc(-c2ccc(C(N)=O)c3[nH]c(C)cc23)c1 [Example 19, 4-(3-Acrylamidophenyl)-2-methyl-1H-indole-7-carboxamide]	< 100	
C=CC(=O)N1CC(N(C)c2ccc(C(N)=O)c3[nH]c(C4CC4)cc23)C1 [E.9.2]		< 100
Cc1c(-c2ccc(C(N)=O)c3[nH]c(C4=CCNCC4)cc23)cccc1-n1cnc2ccccc2c1=O [G.1.1, 4-(2-methyl-3-(4-oxoquinazolin-3(4H)-yl)phenyl)-2-(1,2,3,6-tetrahydropyridin-4-yl)-1H-indole-7-carboxamide]		< 100
C=CC(=O)Nc1cccc(-c2ccc(C(N)=O)c3[nH]c(-c4ccc(CN5CCOCC5)cc4)cc23)c1C [A.1.44]	< 100	
Cc1c(-c2ccc(C(N)=O)c3[nH]c(-c4ccc(F)cc4)cc23)cccc1-n1cnc2ccccc2c1=O [A.12.1]	< 100	
C=CC(=O)Nc1cccc(-c2ccc(C(N)=O)c3[nH]c(-c4cccc(C(=O)OC)c4)cc23)c1C [A.1.19]	< 100	
C=CC(=O)N(Cc1nccs1)c1cccc(-c2ccc(C(N)=O)c3[nH]c(C4=CCN(S(C)(=O)=O)CC4)cc23)c1C [E.1.7]		< 100
